Among the test systems are NCI-H23; HOP-92; HCT-116; SNB-75; UACC-62; OVCAR-8; EKVX; MDA-N; LOX IMVI; PC-3; NCI-H522; Hs-578T; COLO 205; HCT-15; SK-MEL-2; SF-539; OVCAR-3; RPMI-8226; RXF 393.
Holding throughout (assay): DTP human tumour cell line panel, 48 h

Structures are written as SMILES.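 Grown in 96-well plates, cells were treated for 48 hours with each compound at five concentrations. Insufficient inhibition: endpoint recorded as highest concentration tested. GI50 is the concentration that inhibits growth by half.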 Active and inactive are the calls of the source. No stated cut-off is given here; in the data, active = GI50 up to about 1.1 µM and inactive = higher.

On to `O=[N+]([O-])c1ccc(-n2nc3ccc4c(no[n+]4[O-])c3n2)cc1`, for which the GI50 (commonly the concentration at which growth is held to half of that of the control) with NCI-H23 was > 100 µM (inactive); in the experiment with HOP-92 it was 5.82 µM (inactive); with HCT-116, > 100 µM (inactive); in the experiment with SNB-75 it was 61.7 µM (inactive); in the experiment with UACC-62 it was 88.3 µM (inactive); with OVCAR-8 it was > 100 µM (inactive). The GI50 in the experiment on EKVX is 24.8 µM (inactive); in the experiment with MDA-N it was > 100 µM (inactive); with LOX IMVI it was > 100 µM (inactive); in the experiment with PC-3, 5.55 µM (inactive); with NCI-H522 it was > 100 µM (inactive); with Hs-578T it was > 100 µM (inactive). Further, the GI50 in the experiment with COLO 205 was > 100 µM (inactive); with HCT-15, > 100 µM; in the experiment on SK-MEL-2 it was > 100 µM (inactive); in the experiment on SF-539, > 100 µM (inactive); in the experiment with OVCAR-3, > 100 µM (inactive).
For the compound `c1ccc2c(c1)-c1nc3ccccc3cc1C2N1CCOCC1` (stereo not given), the GI50 was > 100 µM (inactive) in the experiment on NCI-H23; > 100 µM (inactive) with HCT-116; > 100 µM (inactive) in the experiment with SNB-75; 97.5 µM (inactive) with UACC-62; 93.5 µM (inactive) in the experiment on OVCAR-8; 72.1 µM (inactive) with RPMI-8226. The GI50 in the experiment with EKVX is 63.1 µM (inactive); with MDA-N it was > 100 µM (inactive); in the experiment with LOX IMVI, > 100 µM (inactive); in the experiment with PC-3, > 100 µM (inactive); with NCI-H522 it was 43.5 µM (inactive); in the experiment with Hs-578T, 46.6 µM (inactive). For the same compound, the GI50 is > 100 µM (inactive) in the experiment on RXF 393; > 100 µM (inactive) in the experiment on COLO 205; > 100 µM in the experiment with HCT-15; > 100 µM (inactive) in the experiment with SK-MEL-2; > 100 µM (inactive) in the experiment with OVCAR-3.
For the compound `C/C(=N\NC(=S)N1CCCC1)c1nc2cccnc2[nH]1`, the concentration for 50% growth inhibition (GI50) in the experiment on NCI-H23 was 0.679 µM (active); in the experiment on HOP-92, 0.681 µM (active); with HCT-116 it was 0.163 µM (active); in the experiment on SNB-75 it was 3.85 µM (inactive); in the experiment with UACC-62, 0.259 µM (active); with OVCAR-8, 0.304 µM (active). Further, the GI50 is 0.553 µM (active) in the experiment with RPMI-8226; 0.979 µM (active) with MDA-N; 0.178 µM (active) with LOX IMVI; 0.355 µM (active) in the experiment with PC-3; 11.1 µM (inactive) in the experiment on NCI-H522; 13.2 µM (inactive) in the experiment with Hs-578T. Further, the GI50 was 0.378 µM (active) in the experiment with COLO 205; 0.137 µM in the experiment with HCT-15; 4.34 µM (inactive) in the experiment on SK-MEL-2; 0.0863 µM (active) in the experiment on SF-539; 0.35 µM (active) with OVCAR-3.
Regarding `Fc1ccc(Oc2nc3ccc(C(F)(F)F)cc3nc2-c2ccccc2)cc1`, the GI50 in the experiment with NCI-H23 is 77.3 µM (inactive); in the experiment on HCT-116, 85.1 µM (inactive); in the experiment with SNB-75 it was 27.9 µM (inactive); with UACC-62, 39.8 µM (inactive); in the experiment on OVCAR-8, > 100 µM (inactive); with EKVX, > 100 µM (inactive). The GI50 was 99.5 µM (inactive) with MDA-N; > 100 µM (inactive) with LOX IMVI; > 100 µM (inactive) with PC-3; > 100 µM (inactive) with NCI-H522; 28.2 µM (inactive) in the experiment with Hs-578T; 67.5 µM (inactive) in the experiment with RXF 393. For the same compound, the GI50 in the experiment with COLO 205 was > 100 µM (inactive); in the experiment on HCT-15 it was > 100 µM; in the experiment on SK-MEL-2, 60 µM (inactive); with SF-539, 30.8 µM (inactive); in the experiment with OVCAR-3 it was > 100 µM (inactive).
With `O=C1OC2C=CCC1C2` (stereo not given), the GI50 in the experiment with NCI-H23, in the experiment with HCT-116, in the experiment on SNB-75, with UACC-62, in the experiment with OVCAR-8 and in the experiment on RPMI-8226 was > 100 µM (inactive) throughout. Moreover, the GI50 in the experiment with EKVX, with MDA-N, in the experiment on LOX IMVI, in the experiment on PC-3, with NCI-H522 and in the experiment with Hs-578T was > 100 µM (inactive) in each case. Further, the GI50 in the experiment with COLO 205 is > 100 µM (inactive); in the experiment on HCT-15 it was > 100 µM; in the experiment on SK-MEL-2, > 100 µM (inactive); in the experiment on SF-539 it was > 100 µM (inactive); in the experiment with OVCAR-3 it was > 100 µM (inactive).

The values are drawn from ChEMBL document CHEMBL1201862, “PubChem BioAssay data set” (2004).
